Counter-ions that a name gives are not always drawn.
Experiments:
SHIP1 = molecular target: T1, SHIP1 (Homo sapiens, UniProt Q92835); assay: Malachite green enzyme assay; format: biochemical; settings: Table 1; PI(3,4,5)P3-diC8 52 μM, enzyme 10 nM, SHIP1 Ptase-C2, 25° C., pH7.4; geometric mean; read-out: SHIP1 IC50 μM (n)
T1 sequence (Q92835 396-858): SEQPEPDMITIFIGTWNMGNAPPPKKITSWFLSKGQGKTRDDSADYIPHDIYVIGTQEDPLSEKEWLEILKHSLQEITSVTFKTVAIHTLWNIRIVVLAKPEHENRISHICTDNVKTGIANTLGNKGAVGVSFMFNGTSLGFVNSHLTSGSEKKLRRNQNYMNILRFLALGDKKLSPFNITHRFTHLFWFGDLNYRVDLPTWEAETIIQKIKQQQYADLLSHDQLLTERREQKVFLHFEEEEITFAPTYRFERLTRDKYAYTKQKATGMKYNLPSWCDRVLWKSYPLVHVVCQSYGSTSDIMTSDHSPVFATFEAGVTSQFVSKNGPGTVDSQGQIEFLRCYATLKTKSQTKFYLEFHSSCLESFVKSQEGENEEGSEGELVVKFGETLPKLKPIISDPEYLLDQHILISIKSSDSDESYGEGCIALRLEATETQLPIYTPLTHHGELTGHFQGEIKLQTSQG
Source text: The inventors have performed a screen of 50K compounds at the SHIP1 phosphatase, analyzed a publicly available fragment-based screen, and evaluated inhibitors reported in the literature. They utilized the malachite green assay with PtdIns(3,4,5)P3-diC8 and SHIP1 Ptase-C2 to measure inhibitory potency. A Cellular Thermal Shift Assay was used to confirm target engagement in cells. A phosphoAKT assay was used to provide additional evidence of on-target activity. A high-content imaging assay measuring phagocytosis, cell number, and nuclear intensity was implemented using the BV2 and HMC3 cell lines to characterize cellular pharmacology and cytotoxicity. […] Inhibitors predicted to have drug-like properties were subjected to assays measuring solubility, cellular permeability, and mouse microsomal stability. A physiological based pharmacokinetic model was compared to measured exposure in vivo for select compounds upon oral administration in mice.
Malachite Green Enzyme Assay. […] Compounds diluted in DMSO were added to 384-well plates. Enzyme solution was added. After a 20 min incubation period, the reaction was initiated by addition of PI(3,4,5)P3-diC8. Final compound concentrations ranged from 50 nM to 950 μM. Final reaction concentrations for the PI(3,4,5)P3-diC8 substrate and the enzyme were 52 μM and 10 nM respectively. The reaction was quenched after 10 min by adding Malachite BioMol Green (Enzo Lifesciences, PA, USA). Plates were then incubated for 30 min at room temperature. Absorbance (620 nm) was measured using a SpectraMax Me5 Microplate Reader (Molecular Devices, LLC, USA). IC50 values were calculated by fitting absorbance versus inhibitor concentration.
Compounds diluted in DMSO were added to 384-well plates. Enzyme solution was added. After a 20 min incubation period, the reaction was initiated by addition of PI(3,4,5)P3-diC8. Final compound concentrations ranged from 50 nM to 950 μM. Final reaction concentrations for the PI(3,4,5)P3-diC8 substrate and the enzyme were 52 μM and 10 nM respectively. The reaction was quenched after 10 min by adding Malachite BioMol Green (Enzo Lifesciences, PA, USA). Plates were then incubated for 30 min at room temperature. Absorbance (620 nm) was measured using a SpectraMax Me5 Microplate Reader (Molecular Devices, LLC, USA). IC50 values were calculated by fitting absorbance versus inhibitor concentration and are reported as the geometric mean and standard error of mean with the number of repeats (n) indicated. Compounds and activities are as depicted in tables 1 and 2 above.

[1] = molecular target: T2, HiBit-labeled full length SHIP1 protein (Homo sapiens, UniProt Q92835); assay: Cellular thermal shift assay (SplitLuc CETSA), compound dose response; format: cell-based; settings: HMC3/HiBit-INPP5D cells, 60 min, heated at 44.2° C.
T2 construct: thermal stability of a HiBit-labeled full length SHIP1 protein in intact cells; expressed in transfected cells; host or cells: HMC3 (stably transfected)
T2 sequence (Q92835 1-1189): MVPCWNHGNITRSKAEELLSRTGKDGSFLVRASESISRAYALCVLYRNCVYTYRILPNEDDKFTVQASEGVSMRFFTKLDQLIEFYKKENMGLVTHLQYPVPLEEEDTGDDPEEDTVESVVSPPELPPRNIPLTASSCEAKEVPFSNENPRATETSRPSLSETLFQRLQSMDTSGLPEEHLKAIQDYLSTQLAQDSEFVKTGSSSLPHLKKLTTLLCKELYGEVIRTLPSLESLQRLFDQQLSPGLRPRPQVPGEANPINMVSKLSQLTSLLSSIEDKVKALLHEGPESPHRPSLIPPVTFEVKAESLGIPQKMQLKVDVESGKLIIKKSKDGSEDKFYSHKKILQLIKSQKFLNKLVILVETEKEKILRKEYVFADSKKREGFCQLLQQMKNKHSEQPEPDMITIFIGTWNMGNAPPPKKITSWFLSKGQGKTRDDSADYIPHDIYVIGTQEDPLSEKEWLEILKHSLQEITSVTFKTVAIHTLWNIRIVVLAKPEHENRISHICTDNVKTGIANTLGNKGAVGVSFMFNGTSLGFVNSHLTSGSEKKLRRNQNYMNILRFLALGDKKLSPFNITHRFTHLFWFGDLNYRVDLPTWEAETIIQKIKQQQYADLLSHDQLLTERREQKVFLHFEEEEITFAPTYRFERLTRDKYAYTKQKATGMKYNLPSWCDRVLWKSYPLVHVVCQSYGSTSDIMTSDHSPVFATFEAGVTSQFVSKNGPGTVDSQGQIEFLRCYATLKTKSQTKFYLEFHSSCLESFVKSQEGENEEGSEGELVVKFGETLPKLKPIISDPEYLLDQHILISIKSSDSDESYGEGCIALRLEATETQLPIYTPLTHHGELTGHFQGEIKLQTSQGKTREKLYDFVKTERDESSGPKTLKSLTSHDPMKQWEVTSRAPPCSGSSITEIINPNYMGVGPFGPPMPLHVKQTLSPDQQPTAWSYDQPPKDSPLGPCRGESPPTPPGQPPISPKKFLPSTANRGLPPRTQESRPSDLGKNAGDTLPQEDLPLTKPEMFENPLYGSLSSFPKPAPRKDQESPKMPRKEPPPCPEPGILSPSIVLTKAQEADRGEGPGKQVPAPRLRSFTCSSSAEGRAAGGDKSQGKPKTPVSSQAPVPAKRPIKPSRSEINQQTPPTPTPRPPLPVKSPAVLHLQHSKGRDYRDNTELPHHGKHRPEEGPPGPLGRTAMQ
Procedure: Cellular thermal shift assay (CETSA). […] This assay was run in the following two formats with HMC3/HiBit-INPP5D stably transfected cells.
2. Compound dose response: run at target Tm (44.2° C. for SHIP1) with compound dosing from 80 uM or 100 uM with 1:3 serial dilutions to generate an 8 point curve. Cells were treated for 60 min before being heated at target Tm for 3 min before luminescence detection. An AC50 was calculated using a four-parameter logistic curve regression model with change at highest concentration noted when difference from control >3SD, otherwise AC50 marked as “nc” for not calculated.
See Martinez et al. (2018) Sci Rep 8: p. 9472; Oh-Hashi et al. (2017) Biochem Biophys Rep 12: pp. 40-45. This assay was run in the following two formats with HMC3/HiBit-INPP5D stably transfected cells.
Compound dose response: run at target Tm (44.2° C. for SHIP1) with compound dosing from 80 uM or 100 uM with 1:3 serial dilutions to generate an 8-point curve. Cells were treated for 60 min before being heated at target Tm for 3 min before luminescence detection. The concentration that induced a half-maximum response (AC50) was calculated using a four-parameter logistic curve regression model with change at highest concentration noted when difference from control >3SD.

BV2 cells = assay: pHrodo-myelin phagocytosis/cell health assay, BV2 cells; format: cell-based; settings: Mus musculus, BV-2, compound 48 hrs, 60 μM to 3 nM, (n) in cell
Procedure: pHrodo-myelin phagocytosis/cell health assay with microglial cells. This 384-well plate high content imaging assay was developed to quantify phagocytosis and cell health simultaneously using either BV2 or HMC3 immortalized microglial cell lines or primary microglia isolated from mouse brain. Cells were cultured in DMEM GlutaMax media (ThermoFisher) containing 10% FBS and Pen-Strep in 37° C. 5% CO2 incubator.
Day 1: Cells were plated (Corning Falcon 384 well Optilux Black and clear bottom plates for imaging) with BV2 at 400 cells/45 μl/well, HMC3 at 600 cells/45 μl/well, or primary at 2000 cell/45 μl/well.
Day 2: Cells were treated with 10× serially diluted compounds in a dose range of 60 μM to 3 nM for 48 hrs at 37° C.
Day 3: Cells were seeded with pHrodo-myelin (for total 20 hrs) 24 hrs after starting compound treatment. The pHrodo-myelin stocks were at 1 mg/ml (protein equivalent) stored in −20° C. or −80° C. freezer. Stocks were thawed and diluted with culture media into 10× seeding solution (50 μg/ml) and added 5 μl/well to 384 well cell plate.
Day 4: Cell staining and imaging. Nuclear staining solution was prepared by adding 1 μl of 10 mg/mL Hoechst-33342 to every 1 ml culture media that will be added to cell plate at 20 μl/well. The final concentration of Hoechst-33342 to cells was about 2.5 μg/ml. Cell plates were incubated for >30 min at 37° C. before imaging. Cell plates were scanned with an ArrayScan automatic high content imaging system using a 10× objective lens, 4 fields/well collected. Three measurements were obtained 1) mean total phagocytosis spot intensity per cell, 2) total cell counts per well, and 3) mean average nuclear intensity per cell for cell health.
This 384-well plate high content imaging assay was developed to quantify phagocytosis and cell health simultaneously using either BV2 or HMC3 immortalized microglial cell lines or primary microglia isolated from mouse brain. Cells were cultured in DMEM GlutaMax media (ThermoFisher) containing 10% FBS and Pen-Strep in 37° C. 5% CO2 incubator. Day 1: Cells were plated (Corning Falcon 384 well Optilux Black and clear bottom plates for imaging) with BV2 at 400 cells/45 μl/well, HMC3 at 600 cells/45 μl/well, or primary at 2000 cell/45 μl/well. Day 2: Cells were treated with 10× serially diluted compounds in a dose range of 60 μM to 3 nM for 48 hrs at 37° C. Day 3: Cells were seeded with pHrodo-myelin (for total 20 hrs) 24 hrs after starting compound treatment. The pHrodo-myelin stocks were at 1 mg/ml (protein equivalent) stored in −20° C. or −80° C. freezer. Stocks were thawed and diluted with culture media into 10× seeding solution (50 μg/ml) and added 5 μl/well to 384 well cell plate. Day 4: Cell staining and imaging. Nuclear staining solution was prepared by adding 1 μl of 10 mg/mL Hoechst-33342 to every 1 ml culture media that will be added to cell plate at 20 μl/well. The final concentration of Hoechst-33342 to cells was about 2.5 μg/ml. Cell plates were incubated for >30 min at 37° C. before imaging. Cell plates were scanned with an ArrayScan automatic high content imaging system using a 10× objective lens, 4 fields/well collected. Three measurements were obtained 1) mean total phagocytosis spot intensity per cell, 2) total cell counts per well, and 3) mean average nuclear intensity per cell for cell health.

SMILES: Clc1ccc(COc2cncc(-c3cnn(C4CCNCC4)c3)c2)cc1 [Compound 11, 3-((4-chlorobenzyl)oxy)-5-(1-(piperidin-4-yl)-1H-pyrazol-4-yl)pyridine hydrochloride]
- IC50 (SHIP1): 109 µM

SMILES: Brc1ccc(COc2cncc(-c3cnn(C4CCNCC4)c3)c2)cc1 [Compound 12, 3-((4-bromobenzyl)oxy)-5-(1-(piperidin-4-yl)-1H-pyrazol-4-yl)pyridine hydrochloride]
- IC50 (SHIP1): 29.7 µM

SMILES: COC(=O)N1CCC(n2cc(-c3cncc(OCc4ccccc4Cl)c3)cn2)CC1 [Compound 17, Methyl 4-(4-(5-((2-chlorobenzyl)oxy)pyridin-3-yl)-1H-pyrazol-1-yl)piperidine-1-carboxylate]
- IC50 (SHIP1): 133 µM

SMILES: O=C(c1ccccc1)N1CCC(n2cc(-c3cncc(OCc4ccccc4Cl)c3)cn2)CC1 [Compound 18, (4-(4-(5-((2-chlorobenzyl)oxy)pyridin-3-yl)-1H-pyrazol-1-yl)piperidin-1-yl)(phenyl)methanone]
- IC50 (SHIP1): 99.2 µM

SMILES: c1ccc(COc2cncc(-c3cnn(C4CCNCC4)c3)c2)cc1 [Compound 14, 3-(benzyloxy)-5-(1-(piperidin-4-yl)-1H-pyrazol-4-yl)pyridine trifluoroacetate]
- IC50 (SHIP1): 208 µM

SMILES: CC(C)(C)OC(=O)N1CCC(n2cc(-c3cncc(OCc4ccc(Cl)cc4)c3)cn2)CC1 [Compound 6, tert-butyl 4-(4-(5-((4-chlorobenzyl)oxy)pyridin-3-yl)-1H-pyrazol-1-yl)piperidine-1-carboxylate]
- IC50 (SHIP1): 137 µM

SMILES: CC(C)(C)OC(=O)N1CCC(n2cc(-c3cncc(OCc4ccc(Cl)cc4Cl)c3)cn2)CC1 [Compound 8, tert-butyl 4-(4-(5-((2,4-dichlorobenzyl)oxy)pyridin-3-yl)-1H-pyrazol-1-yl)piperidine-1-carboxylate]
- IC50 (SHIP1): 18.1 µM

SMILES: O=C(OCc1ccccc1)N1CCC(n2cc(-c3cncc(OCc4ccccc4Cl)c3)cn2)CC1 [Compound 19, Benzyl 4-(4-(5-((2-chlorobenzyl)oxy)pyridin-3-yl)-1H-pyrazol-1-yl)piperidine-1-carboxylate]
- CETSA Min Inhibition (%) [1]: 72.1%
- EC50 (BV2 cells): 958 nM

— patent publication US20260242352A1, “INHIBITION OF SHIP1 AS A THERAPEUTIC STRATEGY FOR THE TREATMENT OF ALZHEIMER'S DISEASE” (The Trustees of Indiana University, priority 2022, published 2026)
